Series [1] is described as follows: Intrinsic clearance in human liver microsomes. Type of series: ADME, Microsome. In general terms: Liver microsomes are a subcellular fraction often used to study metabolism.
Series [2] is described as follows: Half life in rat. In kind it is ADME, organism-based. Conditions: in vivo.
A further series can be described thus: in vivo. The settings on record: rat, brain and plasma.
The nature of series [3]: Blood clearance in rat. Conditions: whole blood. Type of series: ADME, organism-based.
Series [4] is described as follows: Lipophilicity, log D of the compound at pH 7.4. In kind it is physicochemical. Conditions: buffer.
The nature of series [5]: Bioavailability in rat at 1 mg/kg, po and iv. In kind it is ADME, organism-based. The settings on record: in vivo.

As usually defined, the microsomal CLint is the rate of metabolic loss divided by the concentration. A low value points to greater metabolic stability. For orientation: half-life means the time needed for the level to fall by half in the phase considered. By Kp is commonly meant tissue or fluid exposure divided by exposure in the circulation. By clearance is commonly meant a measure of how efficiently the substance is removed, as volume per time. A word on the logD: it is the decadic logarithm of the distribution of all forms, ionised or not, between an organic phase and buffer at a given pH. A higher logD goes with a more lipophilic compound. Usually bioavailability stands for the share of a dose that reaches the circulation, judged against a reference dose that is usually intravenous. Higher therefore signals much systemic uptake.

`CC(C)[C@]1(C(=O)N2CCN(c3cc(C(F)(F)F)cnn3)CC2)CC[C@@H](NC2C3CCCC2COC3)C1` (stereo in doubt; 27) returned a microsomal CLint in series [1] of 58 µL/min/mg.
In the case of `CO[C@@H]1COCC[C@@H]1N[C@@H]1CC[C@@](C(=O)N2CCN(c3cc(C(F)(F)F)ccn3)CC2)(C(C)C)C1`, the microsomal CLint in series [1] worked out at 9.3 µL/min/mg. For the same compound, the half-life in series [2] was 3.9 h. In the series “in vivo”, this compound registered a partition ratio (Kp) of 3. For the same compound, in series [3], the clearance worked out at 33.8 mL/min/kg.
`CO[C@@H]1COCC[C@@H]1N[C@@H]1CC[C@@](C(=O)N2CCN(c3ccnc(C(F)(F)F)c3)CC2)(C(C)C)C1` came in with a microsomal CLint in series [1] of less than 7 µL/min/mg. Also, the logD in series [4] was 0.7.
For the compound `CC(C)[C@]1(C(=O)N2CCN(c3cc(C(F)(F)F)ccn3)CC2)CC[C@@H](N2CCC3COCCC32)C1` (stereo in doubt; 22), the microsomal CLint in series [1] was less than 7 µL/min/mg.
On the same count and under the same terms, as for `CO[C@@H]1COCC[C@@H]1N(C)[C@@H]1CC[C@@](C(=O)N2CCN(c3cc(C(F)(F)F)ccn3)CC2)(C(C)C)C1`, the figure is 58 µL/min/mg.
Regarding `CO[C@@H]1COCC[C@@H]1N[C@@H]1CC[C@@](C(=O)N2CCN(c3cc(C(F)(F)F)cnn3)CC2)(C(C)C)C1`, the microsomal CLint in series [1] is less than 7 µL/min/mg. This compound came in with a logD in series [4] of 0.5. Besides, the bioavailability in series [5] was 50%.

The values are drawn from ChEMBL document CHEMBL1782039, “Discovery of ((1S,3R)-1-isopropyl-3-((3S,4S)-3-methoxy-tetrahydro-2H-pyran-4-ylamino)cyclopentyl)(4-(5-(trifluoromethyl)pyridazin-3-yl)piperazin-1-yl)methanone, PF-4254196, a CCR2 antagonist with an improved cardiovascular profile” (Bioorg Med Chem Lett, 2011).
